Assay results as given in patent US11613525B2 (CTXT PTY LIMITED, priority 2018, dated 2023).
Like-named read-outs stand apart in the source and are kept apart here.

What was measured:
huSTING (HAQ) = huSTING (HAQ) (Homo sapiens (Human), UniProt Q86WV6, G230A/H232R/R293Q/R71H); assay: THP-1 reporter cell line assay, THP-1 STING Lucia ISG cells; type: cell-based; details: THP-1 STING Lucia ISG cells, read-out: Cellular EC50 huSTING (HAQ)
huSTING (WT) = huSTING (WT) (Homo sapiens (Human), UniProt Q86WV6, H232R); assay: THP-1 reporter cell line assay, THP-1-Dual KI-hSTING-R232 cells; type: cell-based; details: read-out: Cellular EC50 huSTING (WT)
[1] = modified method, top concentration 40 μM, pin tool, EnVision

Chain of huSTING (HAQ) (Q86WV6 whole entry R71H/G230A/H232R/R293Q): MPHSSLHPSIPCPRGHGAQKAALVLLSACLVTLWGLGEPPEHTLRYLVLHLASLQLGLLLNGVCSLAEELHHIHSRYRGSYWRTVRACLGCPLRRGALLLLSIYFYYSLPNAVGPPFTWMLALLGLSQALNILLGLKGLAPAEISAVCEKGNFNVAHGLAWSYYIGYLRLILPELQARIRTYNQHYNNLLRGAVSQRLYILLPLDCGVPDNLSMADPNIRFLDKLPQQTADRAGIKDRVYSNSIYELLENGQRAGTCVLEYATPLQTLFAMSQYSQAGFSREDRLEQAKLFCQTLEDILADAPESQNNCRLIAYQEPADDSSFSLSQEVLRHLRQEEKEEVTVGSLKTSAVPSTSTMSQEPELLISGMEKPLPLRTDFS
Chain of huSTING (WT) (Q86WV6 whole entry H232R): as the sequence (Q86WV6 whole entry R71H/G230A/H232R/R293Q) above, with H71R, A230G, Q293R counted along it

| Compound | EC50 (huSTING (HAQ); 24 h, top concentration 50 μM) [µM] | EC50 (huSTING (WT)) [µM] | EC50 (huSTING (HAQ); [1]) [µM] |
| --- | --- | --- | --- |
| CCOC(=O)c1sc2ccc(F)c(F)c2c1COc1ccc(C(N)=O)cc1 [Example 15, Ethyl 3-((4-carbamoylphenoxy)methyl)-4,5-difluorobenzo[b]thiophene-2-carboxylate] | 2.4 | 2.57 |  |
| CCOC(=O)c1sc2ccc(C)c(Cl)c2c1COc1ccc(C(N)=O)cc1 [Example 17, Ethyl 3-((4-carbamoylphenoxy)methyl)-4-chloro-5-methylbenzo[b]thiophene-2-carboxylate] | 14.8 | > 50 |  |
| CCOC(=O)c1sc2cc(Cl)cc(F)c2c1COc1ccc(C(N)=O)cc1 [Example 19, Ethyl 3-((4-carbamoylphenoxy)methyl)-6-chloro-4-fluorobenzo[b]thiophene-2-carboxylate] | > 50 | > 50 |  |
| CCOC(=O)c1sc2cccc(Br)c2c1COc1ccc(C(N)=O)cc1 [Example 21, Ethyl 4-bromo-3-((4-carbamoylphenoxy)methyl)benzo[b]thiophene-2-carboxylate] | 0.474 | 0.576 |  |
| CCOC(=O)c1sc2cccnc2c1COc1ccc(C(N)=O)cc1 [Example 23, Ethyl 3-((4-carbamoylphenoxy)methyl)thieno[3,2-b]pyridine-2-carboxylate] | 7.61 | 16.9 |  |
| CCOC(=O)c1sc2cccc(Cl)c2c1COc1ccc(C(N)=O)c(F)c1 [Example 25, Ethyl 3-((4-carbamoyl-3-fluorophenoxy)methyl)-4-chlorobenzo[b]thiophene-2-carboxylate] | 1.6 | 1.42 |  |
| CCOC(=O)c1sc2cccc(Cl)c2c1COc1cc(F)c(C(N)=O)c(F)c1 [Example 27, Ethyl 3-((4-carbamoyl-3,5-difluorophenoxy)methyl)-4-chlorobenzo[b]thiophene-2-carboxylate] | > 50 | > 50 |  |
| CCOC(=O)c1sc2cccc(Cl)c2c1COc1ccc(C(N)=O)cc1OC [Example 29, Ethyl 3-((4-carbamoyl-2-methoxyphenoxy)methyl)-4-chlorobenzo[b]thiophene-2-carboxylate] | 2.68 | 6.5 |  |
| CCOC(=O)c1sc2cc(F)cc(F)c2c1COc1ccc(C(N)=O)cc1 [Example 31, Ethyl 3-((4-carbamoylphenoxy)methyl)-4,6-difluorobenzo[b]thiophene-2-carboxylate] | 6.76 | 6.91 |  |
| CCOC(=O)c1sc2cccc(OC)c2c1COc1ccc(C(N)=O)cc1 [Example 33, Ethyl 3-((4-carbamoylphenoxy)methyl)-4-methoxybenzo[b]thiophene-2-carboxylate] | 0.665 | 0.891 |  |
| CCOC(=O)c1sc2cccc(C(F)(F)F)c2c1COc1ccc(C(N)=O)cc1 [Example 35, Ethyl 3-((4-carbamoylphenoxy)methyl)-4-(trifluoromethyl)benzo[b]thiophene-2-carboxylate] | 0.655 | 1.28 |  |
| CCOC(=O)c1sc2cccc(Cl)c2c1COc1ccc(C(N)=O)cc1Cl [Example 37, Ethyl 3-((4-carbamoyl-2-chlorophenoxy)methyl)-4-chlorobenzo[b]thiophene-2-carboxylate] | 3.84 | 4.77 |  |
| CCOC(=O)c1sc2cccc(Cl)c2c1COc1c(Cl)cc(C(N)=O)cc1Cl [Example 39, Ethyl 3-((4-carbamoyl-2,6-dichlorophenoxy)methyl)-4-chlorobenzo[b]thiophene-2-carboxylate] | 1.48 | 1.78 |  |
| CCOC(=O)c1sc2cccc(Cl)c2c1COc1c(OC)cc(C(N)=O)cc1OC [Example 41, Ethyl 3-((4-carbamoyl-2,6-dimethoxyphenoxy)methyl)-4-chlorobenzo[b]thiophene-2-carboxylate] | 0.798 | 2.46 |  |
| CCOC(=O)c1sc2cccc(Cl)c2c1COc1ccc(C(N)=O)cc1C#N [Example 43, Ethyl 3-((4-carbamoyl-2-cyanophenoxy)methyl)-4-chlorobenzo[b]thiophene-2-carboxylate] | 1.35 | 3.78 |  |
| CCOC(=O)c1sc2cccc(Cl)c2c1COc1ccc(C(N)=O)nc1 [Example 45, Ethyl 3-(((6-carbamoylpyridin-3-yl)oxy)methyl)-4-chlorobenzo[b]thiophene-2-carboxylate] | 12.9 | 24.7 |  |
| CCOC(=O)c1sc2cccc(Cl)c2c1COc1ccc2c(N)noc2c1 [Example 47, Ethyl 3-(((3-aminobenzo[d]isoxazol-6-yl)oxy)methyl)-4-chlorobenzo[b]thiophene-2-carboxylate] | 18.7 | > 50 |  |
| CCOC(=O)c1sc2cccc(F)c2c1COc1ccc(C(N)=O)c(Cl)c1 [Example 49, Ethyl 3-((4-carbamoyl-3-chlorophenoxy)methyl)-4-fluorobenzo[b]thiophene-2-carboxylate] | 17.2 | 24.1 |  |

| Compound | EC50 (huSTING (HAQ); 24 h, top concentration 50 μM) [µM] | EC50 (huSTING (WT)) [µM] | EC50 (huSTING (HAQ); [1]) [µM] |
| --- | --- | --- | --- |
| CCOC(=O)c1sc2cccc(F)c2c1COc1ccc(C(N)=O)c(C(F)(F)F)c1 [Example 51, Ethyl 3-((4-carbamoyl-3-(trifluoromethyl)phenoxy)methyl)-4-fluorobenzo[b]thiophene-2-carboxylate] | > 50 | > 50 |  |
| CCOC(=O)c1sc2cccc(F)c2c1COc1ccc(C(N)=O)c(C)c1 [Example 53, Ethyl 3-((4-carbamoyl-3-methylphenoxy)methyl)-4-fluorobenzo[b]thiophene-2-carboxylate] | > 50 | > 50 |  |
| CCOC(=O)c1sc2cccc(F)c2c1COc1c(F)cc(C(N)=O)cc1Br [Example 55, Ethyl 3-((2-bromo-4-carbamoyl-6-fluorophenoxy)methyl)-4-fluorobenzo[b]thiophene-2-carboxylate] | 3.6 | > 50 |  |
| CCOC(=O)c1sc2cccc(C3CC3)c2c1COc1ccc(C(N)=O)cc1 [Example 60, Ethyl 3-((4-carbamoylphenoxy)methyl)-4-cyclopropylbenzo[b]thiophene-2-carboxylate] | 0.827 | 47.4 |  |
| CCOC(=O)c1sc2cccc(C#N)c2c1COc1ccc(C(N)=O)cc1 [Example 62, Ethyl 3-((4-carbamoylphenoxy)methyl)-4-cyanobenzo[b]thiophene-2-carboxylate] | 0.95 | 1.65 |  |
| CCOC(=O)c1sc2cccc(Cl)c2c1COc1ccc(C(N)=O)c(F)c1F [Example 66, Ethyl 3-((4-carbamoyl-2,3-difluorophenoxy)methyl)-4-chlorobenzo[b]thiophene-2-carboxylate] | 8.03 | > 50 |  |
| CCOC(=O)c1sc2cccc(Cl)c2c1COc1c(F)cc(C(N)=O)cc1F [Example 68, Ethyl 3-((4-carbamoyl-2,6-difluorophenoxy)methyl)-4-chlorobenzo[b]thiophene-2-carboxylate] | 0.26 | 1.63 |  |
| CCOC(=O)c1sc2cccc(Cl)c2c1COc1c(C)cc(C(N)=O)cc1OC [Example 72, Ethyl 3-((4-carbamoyl-2-methoxy-6-methylphenoxy)methyl)-4-chlorobenzo[b]thiophene-2-carboxylate] | 7.44 | > 50 |  |
| CCOC(=O)c1sc2cccc(Cl)c2c1CNc1ccc(C(N)=O)cc1 [Example 75, Ethyl 3-(((4-carbamoylphenyl)amino)methyl)-4-chlorobenzo[b]thiophene-2-carboxylate] | 17.9 | > 50 |  |
| CCOC(=O)c1sc2cccc(C)c2c1COc1ccc(C(N)=O)cc1 [Example 77, Ethyl 3-((4-carbamoylphenoxy)methyl)-4-methylbenzo[b]thiophene-2-carboxylate] | 0.702 | 3.22 |  |
| CCOC(=O)c1sc2c(F)ccc(F)c2c1COc1c(F)cc(C(N)=O)cc1F [Example 79, Ethyl 3-((4-carbamoyl-2,6-difluorophenoxy)methyl)-4,7-difluorobenzo[b]thiophene-2-carboxylate] | 0.17 | 0.474 |  |
| CCOC(=O)c1sc2c(F)ccc(F)c2c1COc1ccc(C(N)=O)cc1 [Example 81, Ethyl 3-((4-carbamoylphenoxy)methyl)-4,7-difluorobenzo[b]thiophene-2-carboxylate] | 2.79 | 20.7 |  |
| CCOC(=O)c1sc2ccc(F)c(Cl)c2c1COc1ccc(C(N)=O)cc1 [Example 83, Ethyl 3-((4-carbamoylphenoxy)methyl)-4-chloro-5-fluorobenzo[b]thiophene-2-carboxylate] | 2.61 | > 50 |  |
| CCOC(=O)c1sc2ccc(F)c(Cl)c2c1COc1c(F)cc(C(N)=O)cc1F [Example 85, Ethyl 3-((4-carbamoyl-2,6-difluorophenoxy)methyl)-4-chloro-5-fluorobenzo[b]thiophene-2-carboxylate] | 1.63 | > 50 |  |
| CCOC(=O)c1sc2cccc(Br)c2c1COc1c(F)cc(C(N)=O)cc1F [Example 89, Ethyl 4-bromo-3-((4-carbamoyl-2,6-difluorophenoxy)methyl)benzo[b]thiophene-2-carboxylate] |  | 0.148 | 0.016 |
| CCOC(=O)c1sc2ccnc(Cl)c2c1COc1c(F)cc(C(N)=O)cc1F [Example 91, Ethyl 3-((4-carbamoyl-2,6-difluorophenoxy)methyl)-4-chlorothieno[3,2-c]pyridine-2-carboxylate] |  | 0.862 | 0.27 |
| CCOC(=O)c1sc2c(F)ccc(Cl)c2c1COc1c(F)cc(C(N)=O)cc1F [Example 92, Ethyl 3-((4-carbamoyl-2,6-difluorophenoxy)methyl)-4-chloro-7-fluorobenzo[b]thiophene-2-carboxylate] |  | 0.163 | 0.05 |
| CCOC(=O)c1sc2cccc(OCC)c2c1COc1c(F)cc(C(N)=O)cc1F [Example 94, Ethyl 3-((4-carbamoyl-2,6-difluorophenoxy)methyl)-4-ethoxybenzo[b]thiophene-2-carboxylate] |  | 1.69 | 0.39 |
